Test results: patent publication US4005075A, “Penicillins and their preparation” (Sumitomo Chemical Company, Limited, priority 1973, dated 1977)
Values after ≈ are worked out from the molar mass of the structure shown.

Experiments:
Assay in all cases: Antimicrobial activity, agar dilution method (minimal inhibitory concentration)
Format in all cases: cell-based
[1] = tested on: Escherichia coli NIHJ
Text: (§1) The antimicrobial activities of the compounds obtained in the above Examples determined by the standard test method (i.e. agar dilution method) as well as those of the following penicillins as disclosed in U.S. Pat. No. 3,433,784 are shown in Table 2: [drawing 59]

[2] = tested on: Klebsiella pneumoniae 602
Text: as §1

[3] = tested on: Proteus miravilis 2425
Text: as §1

[4] = tested on: Proteus vulgaris HX19
Text: as §1

[5] = tested on: Psudomonas aeruginosa 104
Text: as §1

[6] = tested on: Staphylococcus aureus 209P
Text: as §1

Row | Structure (SMILES) | MIC [1] | MIC [2] | MIC [3] | MIC [4] | MIC [5] | MIC [6]
1 | Cc1ccc(C(=O)N[C@@H](C(=O)N[C@@H]2C(=O)N3[C@@H]2SC(C)(C)[C@@H]3C(=O)O)c2ccccc2)c(O)n1 [Example 13] | 12.5 µg/mL (≈ 25.8 µM) | 25 µg/mL (≈ 51.6 µM) | 12.5 µg/mL (≈ 25.8 µM) | 0.2 µg/mL (≈ 0.413 µM) | 12.5 µg/mL (≈ 25.8 µM) | 0.39 µg/mL (≈ 0.805 µM)
2 | CC1(C)S[C@@H]2[C@H](NC(=O)[C@H](NC(=O)c3cncnc3O)c3ccccc3)C(=O)N2[C@H]1C(=O)O [Example 8] | 25 µg/mL (≈ 53 µM) | 100 µg/mL (≈ 212 µM) | 12.5 µg/mL (≈ 26.5 µM) | 0.05 µg/mL (≈ 0.106 µM) | 3.13 µg/mL (≈ 6.64 µM) | 0.39 µg/mL (≈ 0.827 µM)
3 | CC1(C)S[C@@H]2[C@H](NC(=O)[C@H](NC(=O)c3nnc4ccccc4c3O)c3ccccc3)C(=O)N2[C@H]1C(=O)O [Example 4, D-α-(4-hydroxycinnoline-3-carbonamido)benzylpenicillin] | 12.5 µg/mL (≈ 24 µM) | 12.5 µg/mL (≈ 24 µM) | 12.5 µg/mL (≈ 24 µM) | 0.78 µg/mL (≈ 1.5 µM) | 12.5 µg/mL (≈ 24 µM) | 0.78 µg/mL (≈ 1.5 µM)
4 | CC1(C)S[C@@H]2[C@H](NC(=O)[C@H](NC(=O)c3cnc4cccnc4c3O)c3ccccc3)C(=O)N2[C@H]1C(=O)O [Example 1, D-α-(4-hydroxy-1,5-naphthyridine-3-carbonamido)benzylpenicillin] | 1.56 µg/mL (≈ 2.99 µM) | 6.25 µg/mL (≈ 12 µM) | 3.13 µg/mL (≈ 6 µM) | 0.1 µg/mL (≈ 0.192 µM) | 1.56 µg/mL (≈ 2.99 µM) | 0.78 µg/mL (≈ 1.5 µM)
5 | CC(=O)Nc1ccc2ncc(C(=O)N[C@@H](C(=O)N[C@@H]3C(=O)N4[C@@H]3SC(C)(C)[C@@H]4C(=O)O)c3ccccc3)c(O)c2c1 [Example 17] | 12.5 µg/mL (≈ 21.6 µM) | 3.13 µg/mL (≈ 5.42 µM) | 3.13 µg/mL (≈ 5.42 µM) | 0.1 µg/mL (≈ 0.173 µM) | 6.25 µg/mL (≈ 10.8 µM) | 0.78 µg/mL (≈ 1.35 µM)
6 | CN(C)c1ccc2ncc(C(=O)N[C@@H](C(=O)N[C@@H]3C(=O)N4[C@@H]3SC(C)(C)[C@@H]4C(=O)O)C3=CCC=CC3)c(O)c2n1 [Example 28] | 1.56 µg/mL (≈ 2.75 µM) | 6.25 µg/mL (≈ 11 µM) | 1.56 µg/mL (≈ 2.75 µM) | 0.05 µg/mL (≈ 0.0882 µM) | 3.13 µg/mL (≈ 5.52 µM) | 0.78 µg/mL (≈ 1.38 µM)
7 | COc1ccc2ncc(C(=O)N[C@@H](C(=O)N[C@@H]3C(=O)N4[C@@H]3SC(C)(C)[C@@H]4C(=O)O)c3ccc(O)cc3)c(O)c2n1 [Example 27] | 3.13 µg/mL (≈ 5.51 µM) |  |  | 0.05 µg/mL (≈ 0.0881 µM) |  | 
8 | CC1(C)S[C@@H]2[C@H](NC(=O)[C@H](NC(=O)c3cnccc3O)c3ccccc3)C(=O)N2[C@H]1C(=O)O [Example 3, D-α-(4-hydroxypyridine-3-carbonamido)benzylpenicillin] | 25 µg/mL (≈ 53.1 µM) | 25 µg/mL (≈ 53.1 µM) | 6.25 µg/mL (≈ 13.3 µM) | 0.1 µg/mL (≈ 0.213 µM) | 3.13 µg/mL (≈ 6.65 µM) | 0.39 µg/mL (≈ 0.829 µM)
9 | CC1(C)S[C@@H]2[C@H](NC(=O)[C@H](NC(=O)c3ncccc3O)c3ccccc3)C(=O)N2[C@H]1C(=O)O [Example 10] | 6.25 µg/mL (≈ 13.3 µM) | 25 µg/mL (≈ 53.1 µM) | 25 µg/mL (≈ 53.1 µM) | 0.2 µg/mL (≈ 0.425 µM) | 6.25 µg/mL (≈ 13.3 µM) | 0.2 µg/mL (≈ 0.425 µM)
10 | COc1cc2ncc(C(=O)N[C@@H](C(=O)N[C@@H]3C(=O)N4[C@@H]3SC(C)(C)[C@@H]4C(=O)O)c3ccccc3)c(O)c2cn1 [Example 16] |  | 6.25 µg/mL (≈ 11.3 µM) |  | 0.2 µg/mL (≈ 0.363 µM) | 6.25 µg/mL (≈ 11.3 µM) | 
11 | CC1(C)S[C@@H]2[C@H](NC(=O)C(NC(=O)c3ccccn3)c3ccccc3)C(=O)N2[C@H]1C(=O)O (stereo partly drawn) [Compound, reference compound] |  |  |  | 0.39 µg/mL (≈ 0.858 µM) |  | 
12 | Cc1ccc2ncc(C(=O)N[C@@H](C(=O)N[C@@H]3C(=O)N4[C@@H]3SC(C)(C)[C@@H]4C(=O)O)c3ccc(O)cc3)c(O)c2n1 [Example 26] | 1.56 µg/mL (≈ 2.83 µM) |  |  | 0.05 µg/mL (≈ 0.0906 µM) |  | 
13 | CC1(C)S[C@@H]2[C@H](NC(=O)[C@H](NC(=O)c3cnc4ccccc4c3O)c3ccc(O)cc3)C(=O)N2[C@H]1C(=O)O [Example 22] | 6.25 µg/mL (≈ 11.6 µM) |  |  | 0.2 µg/mL (≈ 0.373 µM) |  | 
14 | CC1(C)S[C@@H]2[C@H](NC(=O)[C@H](NC(=O)c3nc4ccccc4nc3O)c3ccccc3)C(=O)N2[C@H]1C(=O)O [Example 21] | 6.25 µg/mL (≈ 12 µM) | 12.5 µg/mL (≈ 24 µM) | 25 µg/mL (≈ 47.9 µM) | 0.78 µg/mL (≈ 1.5 µM) | 1.56 µg/mL (≈ 2.99 µM) | 0.2 µg/mL (≈ 0.383 µM)
15 | Cc1ccc2c(O)c(C(=O)N[C@@H](C(=O)N[C@@H]3C(=O)N4[C@@H]3SC(C)(C)[C@@H]4C(=O)O)c3ccccc3)cnc2n1 [Example 15] | 3.13 µg/mL (≈ 5.84 µM) | 1.56 µg/mL (≈ 2.91 µM) | 3.13 µg/mL (≈ 5.84 µM) | 0.2 µg/mL (≈ 0.373 µM) | 3.13 µg/mL (≈ 5.84 µM) | 0.39 µg/mL (≈ 0.728 µM)
16 | CC1(C)S[C@@H]2[C@H](NC(=O)[C@H](NC(=O)c3nnc4ccccc4c3O)c3ccc(O)cc3)C(=O)N2[C@H]1C(=O)O [Example 23] |  |  |  | 0.78 µg/mL (≈ 1.45 µM) |  | 
17 | CC1(C)S[C@@H]2[C@H](NC(=O)[C@H](NC(=O)c3cnc4cccnc4c3O)C3=CCC=CC3)C(=O)N2[C@H]1C(=O)O [Example 6] | 1.56 µg/mL (≈ 2.98 µM) | 3.13 µg/mL (≈ 5.98 µM) | 3.13 µg/mL (≈ 5.98 µM) | < 0.05 µg/mL | 1.56 µg/mL (≈ 2.98 µM) | 0.39 µg/mL (≈ 0.745 µM)
18 | CC1(C)S[C@@H]2[C@H](NC(=O)[C@H](NC(=O)c3cnc4c(c3O)CCCC4)c3ccccc3)C(=O)N2[C@H]1C(=O)O [Example 12] | 12.5 µg/mL (≈ 23.8 µM) | 6.25 µg/mL (≈ 11.9 µM) | 6.25 µg/mL (≈ 11.9 µM) | 0.05 µg/mL (≈ 0.0953 µM) | 12.5 µg/mL (≈ 23.8 µM) | 0.78 µg/mL (≈ 1.49 µM)
19 | CC1(C)S[C@@H]2[C@H](NC(=O)[C@H](NC(=O)c3cnc4cccnc4c3O)c3ccc(O)cc3)C(=O)N2[C@H]1C(=O)O (mixture of isomers) [Example 2, D-α-(4-hydroxy-1,5-naphthyridine-3-carbonamido)-p-hydroxyphenylacetamidopenicillanic acid] | 0.78 µg/mL | 6.25 µg/mL |  | 0.0125 µg/mL | 0.78 µg/mL | 1.56 µg/mL
20 | CC1(C)S[C@@H]2[C@H](NC(=O)[C@H](NC(=O)c3cnccc3O)c3ccc(O)cc3)C(=O)N2[C@H]1C(=O)O [Example 18] | 12.5 µg/mL (≈ 25.7 µM) | 200 µg/mL (≈ 411 µM) | 25 µg/mL (≈ 51.4 µM) | 0.2 µg/mL (≈ 0.411 µM) | 3.13 µg/mL (≈ 6.43 µM) | 1.56 µg/mL (≈ 3.21 µM)
21 | CC1(C)S[C@@H]2[C@H](NC(=O)[C@H](NC(=O)c3cnc(O)nc3O)c3ccccc3)C(=O)N2[C@H]1C(=O)O [Example 7] | 12.5 µg/mL (≈ 25.6 µM) | 25 µg/mL (≈ 51.3 µM) | 6.25 µg/mL (≈ 12.8 µM) | 0.05 µg/mL (≈ 0.103 µM) | 3.13 µg/mL (≈ 6.42 µM) | 0.39 µg/mL (≈ 0.8 µM)
22 | Cc1ccc2c(O)c(C(=O)N[C@@H](C(=O)N[C@@H]3C(=O)N4[C@@H]3SC(C)(C)[C@@H]4C(=O)O)c3ccc(O)cc3)cnc2n1 [Example 19] | 6.25 µg/mL (≈ 11.3 µM) |  | 25 µg/mL (≈ 45.3 µM) | 0.39 µg/mL (≈ 0.707 µM) |  | 1.56 µg/mL (≈ 2.83 µM)
23 | CC1(C)S[C@@H]2[C@H](NC(=O)[C@H](NC(=O)c3cnc4ccccc4c3O)c3ccccc3)C(=O)N2[C@H]1C(=O)O [Example 9] |  |  |  | 0.2 µg/mL (≈ 0.384 µM) |  | 
24 | CCOc1cnc2ccccc2c1C(=O)NC(C(=O)N[C@@H]1C(=O)N2[C@@H]1SC(C)(C)[C@@H]2C(=O)O)c1ccccc1 (stereo partly drawn) [B, reference compound] | 50 µg/mL (≈ 91.1 µM) | 25 µg/mL (≈ 45.6 µM) | 100 µg/mL (≈ 182 µM) | 12.5 µg/mL (≈ 22.8 µM) | 100 µg/mL (≈ 182 µM) | 0.39 µg/mL (≈ 0.711 µM)
25 | CC1(C)S[C@@H]2[C@H](NC(=O)[C@H](NC(=O)c3cnc4cn[nH]c4c3O)c3ccccc3)C(=O)N2[C@H]1C(=O)O [Example 20] | 3.13 µg/mL (≈ 6.13 µM) | 6.25 µg/mL (≈ 12.2 µM) | 3.13 µg/mL (≈ 6.13 µM) | 0.1 µg/mL (≈ 0.196 µM) | 6.25 µg/mL (≈ 12.2 µM) | 0.78 µg/mL (≈ 1.53 µM)
26 | CC1(C)S[C@@H]2[C@H](NC(=O)[C@H](NC(=O)c3ccnnc3O)c3ccccc3)C(=O)N2[C@H]1C(=O)O [Example 5, D-α-(3hydroxypyridazine-4-carbonamido)benzylpenicillin] | 12.5 µg/mL (≈ 26.5 µM) | 6.25 µg/mL (≈ 13.3 µM) | 6.25 µg/mL (≈ 13.3 µM) | 0.05 µg/mL (≈ 0.106 µM) | 3.13 µg/mL (≈ 6.64 µM) | 0.39 µg/mL (≈ 0.827 µM)
27 | CN(C)c1ccc2ncc(C(=O)N[C@@H](C(=O)N[C@@H]3C(=O)N4[C@@H]3SC(C)(C)[C@@H]4C(=O)O)c3ccc(O)cc3)c(O)c2n1 [Example 14] | 1.56 µg/mL (≈ 2.69 µM) | 3.13 µg/mL (≈ 5.39 µM) | 1.56 µg/mL (≈ 2.69 µM) | 0.1 µg/mL (≈ 0.172 µM) | 3.13 µg/mL (≈ 5.39 µM) | 3.13 µg/mL (≈ 5.39 µM)
28 | CC1(C)S[C@@H]2[C@H](NC(=O)[C@H](NC(=O)c3cccnc3O)c3ccccc3)C(=O)N2[C@H]1C(=O)O [Example 11] | 12.5 µg/mL (≈ 26.6 µM) | 25 µg/mL (≈ 53.1 µM) | 25 µg/mL (≈ 53.1 µM) | 0.2 µg/mL (≈ 0.425 µM) | 6.25 µg/mL (≈ 13.3 µM) | 0.39 µg/mL (≈ 0.829 µM)
